US10130619B2, “Amido thiadiazole derivatives as NADPH oxidase inhibitors” (GENKYOTEX SUISSE SA, priority 2014, dated 2018)

Target: hNOX1 (Homo sapiens (Human), UniProt Q9Y5S8)
Test: ROS production measurement on hNOX1 membranes (Amplex Red fluorescence assay, assay 1)
Format: biochemical
Conditions: assay 1: membranes from CHO cells overexpressing hNox1, Amplex Red/HRP fluorescence, NADPH 30 μM; non linear regression (GraphPad Prism); read-out: Nox1 inhibitory constant Ki
Procedure: Reactive oxygen species (ROS) production generated by hNOX1 enzyme was measured by fluorescence in both cellular and membrane-based assays using the Amplex® Red reagent. In the presence of horseradish peroxidase (HRP), the Amplex® Red reagent (10-acetyl-3,7-dihydroxyphenoxazine, AR), which is a colorless and nonfluorescent derivative of dihydroresorufin, reacts with H2O2 with a 1:1 stoichiometry to produce highly fluorescent resorufin at an excitation and emission wavelengths of 544 nm and 590 nm, respectively.
After resuspension in sonication buffer (11% sucrose, 120 mM NaCl, 1 mM EGTA in PBS, pH 7.4), cells were broken by sonication and centrifuged (200 g, 10 min). The supernatant was layered onto a 17/40% (w/v) discontinuous sucrose gradient and centrifuged (150,000 g for 30 min). Membrane fractions were collected from the 17/40% interface, aliquoted in 10 μl samples and were stored at −80° C. Protein concentration was determined with Bradford reagent. Flavin Adenine Dinucleotide (FAD) (catalog # F6625-500MG), MgCl2 (catalog # M8266-100G), Phosphatidic Acid (PA) (catalog # P3591-50MG) were purchased from Sigma-Aldrich. […] NADPH (catalog #A1395, 0500) was purchased from Applichem. Amplex red (AR) (catalog # A22177) was purchased from Invitrogen. […] FLUOstar OPTIMA microplate reader was supplied by BMG Labtech (Germany). Zephyr® Compact Liquid Handling Workstation was supplied by PerkinElmer (Germany).
Assay 1: ROS Production Measurement on hNOX1 Membranes
All solutions were placed on ice and protected from light.
The NADPH was dissolved in water at a concentration of 12 mM and was transferred in a metal transfer plate kept at 4° C. The NADPH was added to the assay plate to initiate the reaction just before the measurement.
Serial dilution (1:3, 10 serial dilution) of the compounds was performed in 100% DMSO in 96 well polypropylene plate—Row B-H […], Row A, Column 1-10 contained reference compound. Starting concentration was 10^−2 M (10 mM). Final concentration in assay was 10^−4 M (100 μM). Compounds were diluted twice in PBS buffer by transferring 30 μl/well of PBS into 30 μl/well compounds sample in DMSO using Zephyr® Compact Liquid Handling Workstation. Control wells-columns 1 and 12-contained 60 μl DMSO in 50% PBS pH7.
Reaction mixture is dispensed using Zephyr® Compact Liquid Handling Workstation. 90 μl of mix with membrane were dispensed into 96 well black plates—Column 2-11, Column 1 Row A-D, Column 12 Row E-H. 90 μl of control mix were dispensed into assay plate—Column 1 Row E-H, Column 12 Row A-D, which are wells for measuring background signal. 2 μl of compounds were dispensed into each well of assay plate using Zephyr® Compact Liquid Handling Workstation. The reaction mixture with compounds was incubated in assay plates for 20 min at 37° C. in a Titramax microplate incubator with gentle agitation. 10 μl of NADPH is dispensed to the assay plate. Fluorescence reading was recorded with the FLUOstar OPTIMA microplate reader for 10 min at 37° C. (8 cycles, 1 cycle duration 55 sec).

Sequence of hNOX1 (Q9Y5S8 whole entry): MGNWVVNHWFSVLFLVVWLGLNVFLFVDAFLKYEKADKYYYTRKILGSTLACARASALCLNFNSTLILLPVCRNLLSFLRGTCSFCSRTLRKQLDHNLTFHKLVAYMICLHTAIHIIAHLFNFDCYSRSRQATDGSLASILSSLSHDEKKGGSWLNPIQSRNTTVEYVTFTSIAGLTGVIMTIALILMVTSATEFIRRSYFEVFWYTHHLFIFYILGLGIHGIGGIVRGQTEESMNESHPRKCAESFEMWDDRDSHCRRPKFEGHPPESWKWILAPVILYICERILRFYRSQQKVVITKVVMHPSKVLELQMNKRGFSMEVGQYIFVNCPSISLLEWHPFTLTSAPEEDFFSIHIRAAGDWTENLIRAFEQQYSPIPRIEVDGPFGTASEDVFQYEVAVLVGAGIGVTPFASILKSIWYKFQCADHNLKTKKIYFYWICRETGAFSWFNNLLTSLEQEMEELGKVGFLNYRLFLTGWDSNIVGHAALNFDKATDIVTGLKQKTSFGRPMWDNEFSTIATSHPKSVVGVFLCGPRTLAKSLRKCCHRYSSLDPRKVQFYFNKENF
Sequence of hNOX1 (P13498 whole entry partner): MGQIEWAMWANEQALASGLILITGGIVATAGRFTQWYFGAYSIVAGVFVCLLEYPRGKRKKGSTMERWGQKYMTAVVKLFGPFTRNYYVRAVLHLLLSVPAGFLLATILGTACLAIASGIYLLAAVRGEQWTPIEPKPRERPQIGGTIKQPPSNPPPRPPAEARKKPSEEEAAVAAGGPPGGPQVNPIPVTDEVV

| Ki [nM] | SMILES |
| --- | --- |
| 29 | COc1cc(C(=O)Nc2nnc(-c3ccncc3)s2)ccc1O[C@@H](CCN1CCCC1)c1ccccc1 [Example 9, (S)-3-methoxy-4-(1-phenyl-3-(pyrrolidin-1-yl)propoxy)-N-(5-(pyridin-4-yl)-1,3,4-thiadiazol-2-yl)benzamide] |
| 49 | COc1cc(C(=O)Nc2nnc(-c3ccncc3)s2)ccc1O[C@@H](CN1CCCC1)c1ccccc1 [Example 10, (R)-3-methoxy-4-(1-phenyl-2-(pyrrolidin-1-yl)ethoxy)-N-(5-(pyridin-4-yl)-1,3,4-thiadiazol-2-yl)benzamide] |
| 220 | COc1cc(C(=O)Nc2nnc(-c3ccncc3)s2)ccc1OCc1nccn1C [Example 19, 3-methoxy-4-((1-methyl-1H-imidazol-2-yl)methoxy)-N-(5-(pyridin-4-yl)-1,3,4-thiadiazol-2-yl)benzamide] |
| 18 | COCCNc1cc(C(=O)Nc2nnc(-c3ccncc3)s2)cnc1O[C@@H](C)c1ccccc1 [Example 22, (S)-5-((2-methoxyethyl)amino)-6-(1-phenylethoxy)-N-(5-(pyridin-4-yl)-1,3,4-thiadiazol-2-yl)nicotinamide] |
| 62 | CN1CCN(c2cc(C(=O)Nc3nnc(-c4ccncc4)s3)cnc2OCc2ccccc2)CC1 [Example 24, 6-(benzyloxy)-5-(4-methylpiperazin-1-yl)-N-(5-(pyridin-4-yl)-1,3,4-thiadiazol-2-yl)nicotinamide] |
| 64 | CC(C)(O)[C@H](Oc1ncc(C(=O)Nc2nnc(-c3ccncc3)s2)cc1Cl)c1ccccc1 [Example 29, (R)-5-chloro-6-(2-hydroxy-2-methyl-1-phenylpropoxy)-N-(5-(pyridin-4-yl)-1,3,4-thiadiazol-2-yl)nicotinamide] |
| 45 | CC(Cc1ccccc1)Oc1ccc(C(=O)Nc2nnc(-c3ccncc3)s2)cn1 (stereo not shown) [Example 34, 6-((1-phenylpropan-2-yl)oxy)-N-(5-(pyridin-4-yl)-1,3,4-thiadiazol-2-yl)nicotinamide] |
| 38 | C[C@H](Oc1ncc(C(=O)Nc2nnc(-c3ccncc3)s2)cc1OCC1CCOCC1)c1ccccc1 [Example 37, (S)-6-(1-phenylethoxy)-N-(5-(pyridin-4-yl)-1,3,4-thiadiazol-2-yl)-5-((tetrahydro-2H-pyran-4-yl)methoxy)nicotinamide] |
| 100 | O=C(Nc1nnc(-c2ccncc2)s1)c1ccc(O[C@@H](CN2CCOCC2)c2ccccc2)nc1 [Example 39, (R)-6-(2-morpholino-1-phenylethoxy)-N-(5-(pyridin-4-yl)-1,3,4-thiadiazol-2-yl)nicotinamide] |
| 190 | COc1cc(C(=O)Nc2nnc(-c3ccncc3)s2)ccc1CN1Cc2ccccc2C1 [Example 40, 4-(isoindolin-2-ylmethyl)-3-methoxy-N-(5-(pyridin-4-yl)-1,3,4-thiadiazol-2-yl)benzamide] |
